Patent US10590086B2, “Pharmaceutical compound” (IOmet Pharma Ltd., priority 2014, dated 2020)

Columns and labels:
IDO = IDO (Homo sapiens, UniProt P14902); assay: SKOV3 kynurenine cell-based assay (IDO induced by IFN-γ); parameters: IDO expression was induced in the SKOV3 cells by the addition of 500 ng/ml IFN-γ; endogenous in cells; host or cells: SKOV3 (human ovarian adenocarcinoma), induced with IFN-γ; details: SKOV3 human ovarian adenocarcinoma cells, 500 ng/ml IFN-γ, 48 hours, 500 μM L-tryptophan; read-out: SKOV3 Kynurenine cell based assay pIC50 (converted)
Sequence of IDO (P14902 whole entry): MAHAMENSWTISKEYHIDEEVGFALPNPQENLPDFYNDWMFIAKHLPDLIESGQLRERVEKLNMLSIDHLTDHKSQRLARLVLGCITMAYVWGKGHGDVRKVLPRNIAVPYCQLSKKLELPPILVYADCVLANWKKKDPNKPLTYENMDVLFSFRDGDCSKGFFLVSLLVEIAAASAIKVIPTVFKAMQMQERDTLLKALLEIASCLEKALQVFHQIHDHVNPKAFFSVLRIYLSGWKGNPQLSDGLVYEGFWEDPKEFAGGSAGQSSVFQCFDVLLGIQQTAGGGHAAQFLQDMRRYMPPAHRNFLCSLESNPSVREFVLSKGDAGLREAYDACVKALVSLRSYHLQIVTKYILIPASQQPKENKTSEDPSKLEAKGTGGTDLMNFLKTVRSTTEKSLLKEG
Experimental: (§1) Exemplary compounds of the invention were prepared, and tested to determine their effect as TDO and/or IDO inhibitors. Two different assays were employed: 1. a cell-based assay for detecting the effect of test compounds on kynurenine production in two different cancer cell types. This assay utilised cancer cells which expressed either TDO or IDO and as such was used as a means of testing compound activity at these two enzymes in a cell-based context. 2. a TDO and IDO biochemical coupled assay which utilised recombinantly produced and purified TDO and IDO enzymes in combination with the enzyme formamidase. This coupled enzyme system allowed conversion of N-formylkynurenine produced by TDO or IDO activity to kynurenine which was then quantified by fluorescence following addition of Erhlich's Reagent The protocols for these are set out below.
(§2) Cell Based Assay for Detection of Kynurenine Produced by TDO and/or IDO
(§3) A172 (human glioblastoma) and SKOV3 (human ovarian adenocarcinoma) cells were seeded in a 96 well plate at 30,000 or 40,000 cells per well respectively in phenol red-free RPMI supplemented with 10% FCS, 2 mM L-glutamine and 500 μM L-tryptophan. IDO expression was induced in the SKOV3 cells by the addition of 500 ng/ml IFN-γ. Cells were incubated at 37° C. with or without the addition of test compound. After 48 hours, the cells were removed by centrifugation and Erhlich's reagent was added to the supernatant. The Erhlich's reagent was incubated for 5 minutes before the absorbance was read at 490 nm.

TDO = TDO (Homo sapiens, UniProt P48775); assay: A172 kynurenine cell-based assay; parameters: This assay utilised cancer cells which expressed either TDO or IDO; endogenous in cells; host or cells: A172 (human glioblastoma); details: A172 human glioblastoma cells, 48 hours, 500 μM L-tryptophan; read-out: A172 Kynurenine cell based assay pIC50 (converted)
Sequence of TDO (P48775 whole entry): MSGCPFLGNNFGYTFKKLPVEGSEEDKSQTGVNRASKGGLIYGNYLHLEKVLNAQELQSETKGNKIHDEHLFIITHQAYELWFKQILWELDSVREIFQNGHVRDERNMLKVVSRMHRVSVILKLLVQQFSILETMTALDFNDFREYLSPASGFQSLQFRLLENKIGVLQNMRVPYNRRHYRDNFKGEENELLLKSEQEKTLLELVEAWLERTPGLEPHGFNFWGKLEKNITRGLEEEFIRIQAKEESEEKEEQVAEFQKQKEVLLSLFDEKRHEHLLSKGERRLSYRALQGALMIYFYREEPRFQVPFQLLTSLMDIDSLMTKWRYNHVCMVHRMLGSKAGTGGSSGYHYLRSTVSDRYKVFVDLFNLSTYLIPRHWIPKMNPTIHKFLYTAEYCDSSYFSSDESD
Experimental: as §1, §2, §3

Row | SMILES | IC50 (IDO) | IC50 (TDO)
1 | CS(=O)(=O)N1CCC(Oc2cc(Cl)cc3[nH]ncc23)CC1 [Compound 159] | 3.24 to 31.6 µM | 3.24 to 31.6 µM
2 | CN1CCN(c2cc(Cl)cc3[nH]ncc23)CC1(C)C [Compound 164] | 32.4 to 100 µM | < 3.16 µM
3 | CC(C)C(=O)N1CCC(c2cc(Cl)cc3[nH]ncc23)CC1 [Compound 166] | 32.4 to 100 µM | < 3.16 µM
4 | NC(=O)N1CCC(c2cc(Cl)cc3[nH]ncc23)CC1 [Compound 168] | 3.24 to 31.6 µM | < 3.16 µM
5 | CS(=O)(=O)N1CCN(c2cc(C3CCOCC3)cc3[nH]ncc23)CC1 [Compound 169] | > 100 µM | 3.24 to 31.6 µM
6 | CCC(=O)N1CCC(c2cc(Cl)cc3[nH]ncc23)CC1 [Compound 170] | 3.24 to 31.6 µM | < 3.16 µM
7 | CC1(C)CN(c2cc(-c3ncco3)cc3[nH]ncc23)CCN1S(C)(=O)=O [Compound 171] | > 100 µM | 3.24 to 31.6 µM
8 | CNS(=O)(=O)N1CCC(c2cc(Cl)cc3[nH]ncc23)CC1 [Compound 172] | 3.24 to 31.6 µM | < 3.16 µM
9 | CN(C)S(=O)(=O)N1CCC(c2cc(Cl)cc3[nH]ncc23)CC1 [Compound 173] | 3.24 to 31.6 µM | < 3.16 µM
10 | NS(=O)(=O)N1CCC(c2cc(Cl)cc3[nH]ncc23)CC1 [Compound 174] | 3.24 to 31.6 µM | < 3.16 µM
11 | COCC(=O)N1CCC(c2cc(Cl)cc3[nH]ncc23)CC1 [Compound 176] | 3.24 to 31.6 µM | < 3.16 µM
12 | CS(=O)(=O)c1ccc(Nc2cc(Cl)cc3[nH]ncc23)cc1 [Compound 180] | 32.4 to 100 µM | 3.24 to 31.6 µM
13 | CN1C(=O)NC(=O)C12CCN(c1cc(Cl)cc3[nH]ncc13)CC2 [Compound 184] | 3.24 to 31.6 µM | < 3.16 µM
14 | O=C1NC(=O)C2(CCN(c3cc(C(F)(F)F)cc4[nH]ncc34)CC2)N1 [Compound 185] | < 3.16 µM | < 3.16 µM
15 | CS(=O)(=O)N1CCN(c2cc(C(F)(F)F)cc3[nH]ncc23)c2ccccc21 [Compound 186] | 3.24 to 31.6 µM | > 100 µM
16 | O=C1NCCC12CCN(c1cc(Cl)cc3[nH]ncc13)CC2 [Compound 189] | 3.24 to 31.6 µM | 3.24 to 31.6 µM
17 | CC(=O)N1CCC(c2cccc3[nH]ncc23)CC1(C)C (stereo not drawn) [Compound 190] | 3.24 to 31.6 µM | < 3.16 µM

Now from value to compound:

Row | IC50 (IDO) | IC50 (TDO) | SMILES
18 | 3.24 to 31.6 µM | 3.24 to 31.6 µM | CCc1cc(N2CCN(S(C)(=O)=O)CC2)c2cn[nH]c2c1 [Compound 158]
19 | 3.24 to 31.6 µM | < 3.16 µM | CC(=O)N1CCC(Oc2cc(Cl)cc3[nH]ncc23)CC1 [Compound 160]
20 | < 3.16 µM | < 3.16 µM | CCc1cc(N2CCN(S(C)(=O)=O)C(C)(C)C2)c2cn[nH]c2c1 [Compound 161]
21 | 32.4 to 100 µM | > 100 µM | COCCn1ncc2c(OC3CCN(S(C)(=O)=O)CC3)cc(Cl)cc21 [Compound 162]
22 | 32.4 to 100 µM | > 100 µM | CS(=O)(=O)N1CCC(Oc2cc(Cl)cc3c2cnn3CCO)CC1 [Compound 163]
23 | 32.4 to 100 µM | < 3.16 µM | O=C(C1CC1)N1CCC(c2cc(Cl)cc3[nH]ncc23)CC1 [Compound 165]
24 | 3.24 to 31.6 µM | < 3.16 µM | O=C(CO)N1CCC(c2cc(Cl)cc3[nH]ncc23)CC1 [Compound 167]
25 | 3.24 to 31.6 µM | < 3.16 µM | CC1(C)CC(c2cc(Cl)cc3[nH]ncc23)CCN1S(C)(=O)=O (stereo not drawn) [Compound 175]
26 | 3.24 to 31.6 µM | < 3.16 µM | CC(O)C(=O)N1CCC(c2cc(Cl)cc3[nH]ncc23)CC1 (stereo not drawn) [Compound 177]
27 | < 3.16 µM | < 3.16 µM | CS(=O)(=O)N1CCN(c2cc(Cl)cc3[nH]ncc23)CC12CCC2 [Compound 181]
28 | 3.24 to 31.6 µM | < 3.16 µM | CC(=O)N1CCN(c2cc(Cl)cc3[nH]ncc23)CC12CCC2 [Compound 182]
29 | 32.4 to 100 µM | 3.24 to 31.6 µM | CC1(C)CC(c2cccc3[nH]ncc23)CCN1S(C)(=O)=O (stereo not drawn) [Compound 187]
30 | 3.24 to 31.6 µM | < 3.16 µM | O=S(=O)(C1CC1)N1CCC(c2cc(Cl)cc3[nH]ncc23)CC1 [Compound 188]
